Source: patent publication US20110105381A2, “Prodrugs of Peripheral Phenolic Opioid Antagonists” (PharmacoFore, Inc., priority 2007, published 2011)
Where a name gives a salt, the structure may show the parent alone.

Test: Plasma timecourse of N-MNLX following PO administration to rat
Format: in vivo, male Sprague-Dawley rats
Conditions: oral dosing in rats; Cmax and/or persistence of exposure compared with N-MNLX itself
Experimental: (§1) Plasma Timecourse of Peripheral Phenolic Opioid Antagonists Following PO Administration to Rat
(§2) Oral dosing: The test compounds were dissolved in saline and dosed via oral gavage into jugular vein cannulated male Sprague-Dawley rats. N-MTX and N-MNLX, each at 20 mg/kg, were used as positive controls and the test compounds were dosed at the doses indicated in Tables 1 and 2. At specified time points, blood samples were withdrawn, quenched into methanol, centrifuged at 14000 rpm @ 4° C., and stored at −80° C. until analysis. Samples were quantified via LC/MS/MS using an ABI 3000 triple-quad mass spectrometer.

SMILES | pharmacokinetic profile (e.g. oral bioavailability), N-MNLX
C=CC[N+]1(C)CC[C@]23c4c5ccc(OC(=O)N(C)CCN)c4O[C@H]2C(=O)CC[C@@]3(O)[C@H]1C5 (stereo partly shown) [Example 14, N-Methylnaloxone 3-(N-methyl-N-(2-aminoethyl))carbamate] | improved pharmacokinetic profile
C=CC[N+]1(C)CC[C@]23c4c5ccc(O)c4O[C@H]2C(=O)CC[C@@]3(O)[C@H]1C5.[Br-] (stereo partly shown) [N-MNLX, N-methylnaloxone, reference compound] | poor pharmacokinetic profiles

Test: Plasma timecourse of N-MTX following PO administration to rat
Conditions: oral dosing in rats at the doses of Table 1
Experimental: as §1, §2

SMILES | detectable levels of N-MTX
CC(=O)N[C@@H](CCCNC(=N)N)C(=O)NCCN(C)C(=O)Oc1ccc2c3c1O[C@H]1C(=O)CC[C@@]4(O)C(C2)[N@+](C)(CC2CC2)CC[C@]314 [Example 4, (R)—N-Methylnaltrexone 3-(N-methyl-N-(2-N-acetylarginylamino))ethylcarbamate] | did not afford detectable levels of N-MTX
CN(CCNC(=O)[C@@H](N)CC(N)=O)C(=O)Oc1ccc2c3c1O[C@H]1C(=O)CC[C@@]4(O)C(C2)[N@+](C)(CC2CC2)CC[C@]314 [Example 5, (R)—N-Methylnaltrexone 3-(N-methyl-N-(2-N-asparaginylamino))ethylcarbamate] | did not afford detectable levels of N-MTX
CN(CCNC(=O)[C@@H](N)Cc1ccc(O)cc1)C(=O)Oc1ccc2c3c1O[C@H]1C(=O)CC[C@@]4(O)C(C2)[N@+](C)(CC2CC2)CC[C@]314 [Example 7, (R)—N-Methylnaltrexone 3-(N-methyl-N-(2-N-tyrosinylamino))ethylcarbamate] | did not afford detectable levels of N-MTX
C[C@H](N)C(=O)NCCN(C)C(=O)Oc1ccc2c3c1O[C@H]1C(=O)CC[C@@]4(O)C(C2)[N@+](C)(CC2CC2)CC[C@]314 [Example 8, (R)—N-Methylnaltrexone 3-(N-methyl-N-(2-N-alaninylamino))ethylcarbamate] | did not afford detectable levels of N-MTX
CN(CCNC(=O)[C@@H](N)CCCCN)C(=O)Oc1ccc2c3c1O[C@H]1C(=O)CC[C@@]4(O)C(C2)[N@+](C)(CC2CC2)CC[C@]314 [Example 9, (R)—N-Methylnaltrexone 3-(N-methyl-N-(2-N-lysinylamino))ethylcarbamate] | did not afford detectable levels of N-MTX
C[C@H](NC(=O)CN)C(=O)NCCN(C)C(=O)Oc1ccc2c3c1O[C@H]1C(=O)CC[C@@]4(O)C(C2)[N@+](C)(CC2CC2)CC[C@]314 [Example 12, (R)—N-Methylnaltrexone 3-(N-methyl-N-(2-N-glycinylalaninylamino))-ethylcarbamate] | did not afford detectable levels of N-MTX

Same assay, conditions: oral dosing in rats; Cmax and/or persistence of exposure compared with N-MTX itself

SMILES | pharmacokinetic profile (e.g. oral bioavailability), N-MTX
CC(C)C[C@H](N)C(=O)NCCN(C)C(=O)Oc1ccc2c3c1O[C@H]1C(=O)CC[C@@]4(O)C(C2)[N@+](C)(CC2CC2)CC[C@]314 [Example 2, (R)—N-Methylnaltrexone 3-(N-methyl-N-(2-leucinylamino))ethylcarbamate Hydrochloride] | improved pharmacokinetic profile
CN(CCNC(=O)[C@@H](N)CCCNC(=N)N)C(=O)Oc1ccc2c3c1O[C@H]1C(=O)CC[C@@]4(O)C(C2)[N@+](C)(CC2CC2)CC[C@]314 [Example 3, (R)—N-Methylnaltrexone 3-(N-methyl-N-(2-arginylamino))ethylcarbamate] | improved pharmacokinetic profile
CN(CCNC(=O)[C@@H](N)CC(=O)O)C(=O)Oc1ccc2c3c1O[C@H]1C(=O)CC[C@@]4(O)C(C2)[N@+](C)(CC2CC2)CC[C@]314 [Example 6, (R)—N-Methylnaltrexone 3-(N-methyl-N-(2-N-aspartinylamino))ethylcarbamate] | improved pharmacokinetic profile
CN(CCNC(=O)[C@H](CCCNC(=N)N)NC(=O)CN)C(=O)Oc1ccc2c3c1O[C@H]1C(=O)CC[C@@]4(O)C(C2)[N@+](C)(CC2CC2)CC[C@]314 [Example 10, (R)—N-Methylnaltrexone 3-(N-methyl-N-(2-N-glycinylarginylamino))ethylcarbamate] | improved pharmacokinetic profile
CC(=O)NCC(=O)N[C@@H](CCCNC(=N)N)C(=O)NCCN(C)C(=O)Oc1ccc2c3c1O[C@H]1C(=O)CC[C@@]4(O)C(C2)[N@+](C)(CC2CC2)CC[C@]314 [Example 11, (R)—N-Methylnaltrexone 3-(N-methyl-N-(2-N—(N-acetyl)glycinylarginylamino))-ethylcarbamate] | improved pharmacokinetic profile
CN(CCNC(=O)[C@H](Cc1ccccc1)NC(=O)CN)C(=O)Oc1ccc2c3c1O[C@H]1C(=O)CC[C@@]4(O)C(C2)[N@+](C)(CC2CC2)CC[C@]314 [Example 13, (R)—N-Methylnaltrexone 3-(N-methyl-N-(2-N-glycinylphenylalaninylamino))-ethylcarbamate] | improved pharmacokinetic profile
C[N@@+]1(CC2CC2)CC[C@]23c4c5ccc(O)c4O[C@H]2C(=O)CC[C@@]3(O)C1C5 [N-MTX, (R)—N-methylnaltrexone, reference compound] | poor pharmacokinetic profiles

Test: not given
Conditions: rat, in vivo

SMILES | pharmacokinetic profile (e.g. oral bioavailability), N-MTX
CN(CCN)C(=O)Oc1ccc2c3c1O[C@H]1C(=O)CC[C@@]4(O)[C@@H](C2)[N+](C)(CC2CC2)CC[C@]314.Cl.[Cl-] (stereo partly drawn) [Example 1, (R)—N-Methylnaltrexone 3-(N-methyl-N-(2-aminoethyl))carbamate] | improved pharmacokinetic profile
